Assay results as given in patent US6358515B2, “Hydroquinone derivatives” (Senju Pharmaceutical Co., Ltd., priority 1997, dated 2002).

Assays:
[1] = tested on: Blood Pressure of SHR Rat; test: Effect on blood pressure of SHR rat (oral administration); format: in vivo, male SHR/Izm rats; settings: mean ± SD (n = 4-5); for Blood pressure, 1 hr: 1 hr after 30 mg/kg orally; for Blood pressure, 2 hr: 2 hr after 30 mg/kg orally; for Blood pressure, 3 hr: 3 hr after 30 mg/kg orally; for Blood pressure, 4 hr: 4 hr after 30 mg/kg orally; for Blood pressure, 0 hr: initial value (0 hr) before administration
Description: The present compound was tested for its blood pressure lowering effect.
About 25-week old male SHR/Izm rats were used in the test.
Initial value of the blood pressure of rat tail vein was measured with a non-invasive automatic manometer for small animals, UR-5000 (UEDA Seisakusho), and then one of the test compounds 30 mg/kg was orally administered. Blood pressure was measured in the same manner 1, 2, 3 and 4 hours after administration. For analysis, Student t-test was conducted for the blood pressure measured at each time against the initial value.

[2] = tested on: Intraocular Pressure of Rabbit; test: Intraocular pressure lowering effect in rabbits (eye drop instillation, tonometer); format: in vivo, Male Dutch rabbits; settings: for Intraocular pressure, 1 hr: 1 hr after instillation of 50 μl of 0.5% eye drops into the right eye; for Intraocular pressure, 1 hr / Intraocular pressure, 2 hr / Intraocular pressure, 3 hr / Intraocular pressure, 4 hr / Intraocular pressure, 0 hr: mean ± SD (n = 4-5); for Intraocular pressure, 2 hr: 2 hr after instillation of 50 μl of 0.5% eye drops into the right eye; for Intraocular pressure, 3 hr: 3 hr after instillation of 50 μl of 0.5% eye drops into the right eye; for Intraocular pressure, 4 hr: 4 hr after instillation of 50 μl of 0.5% eye drops into the right eye; for Intraocular pressure, 0 hr: initial value (0 hr) before instillation
Description: The present compound was tested for its intraocular pressure lowering effect.
Male Dutch rabbits of about 2.5 kg body weight were used in the test.
Intraocular pressure was measured by means of a contact type tonometer (ALCON Applanation Pneumatonograph) after instillation of oxybuprocaine hydrochloride [Anelocal (registered trademark) eye drops: SENJU Pharmaceutical Co., Ltd.] into both eyes of the rabbits for local anesthesia.
Eye drops were prepared each containing one of the test compounds at a concentration of 0.5% and 50 μl of it was instilled into the right eye. Intraocular pressure of both eyes was measured over time (0, 1, 2, 3, 4 hours). For analysis, Student t-test was conducted for the intraocular pressure measured at each time against the initial value.

[3] = Radical scavenging ability on the stable radical DPPH; settings: for IC50: DPPH radical; for Radical scavenging activity (in words) / Radical scavenging rate (%): DPPH; for Radical scavenging activity (in words): 1-1000 μM; for Radical scavenging rate (%): 20 minutes, absorbance at 517 nm
Description: The present compound was tested for its scavenging ability on a stable radical of 1,1-diphenyl-2-picrylhydrazide (DPPH).
The test was carried out according to the method described by Blois, M. S., Nature, 181: 1199 ([…]).
Each of the test compound was dissolved in purified water to prepare 10^−5-10^−2 M test solutions. To 300 μl each of the test solutions was added 2.7 ml of a […] solution of the stable radical, DPPH, in ethanol and stirred. The mixture was allowed to stand for 20 minutes, and absorbance at 517 nm was measured. Radical scavenging ability was determined for each of the test solutions according to the following equation.
Radical scavenging rate (%)=(Absorbance of control−Absorbance of test solution[…])×100

| melting point | Structure (SMILES) | Blood pressure, 1 hr [1] | Blood pressure, 2 hr [1] | Blood pressure, 3 hr [1] | Blood pressure, 4 hr [1] | Blood pressure, 0 hr [1] [mmHg] | Intraocular pressure, 1 hr [2] | Intraocular pressure, 2 hr [2] | Intraocular pressure, 3 hr [2] | Intraocular pressure, 4 hr [2] | Intraocular pressure, 0 hr [2] [mmHg] | further results |
| --- | --- | --- | --- | --- | --- | --- | --- | --- | --- | --- | --- | --- |
| 138 to 140 °C | COc1ccccc1N1CCN(C(Oc2cc(C)c(O)c(OC)c2OC)C(C)O)CC1.Cl (stereo not shown) | – | – | – | – | – | – | – | – | – | – | – |
| 214 to 215 °C (dec.) | COc1ccccc1N1CCN(CC(O)COc2cc(C)c(O)cc2C)CC1.Cl.Cl (stereo not shown) | – | – | – | – | – | – | – | – | – | – | – |
| 213 to 215 °C (dec.) | COc1ccc(N2CCN(CC(O)COc3ccc(O)cc3)CC2)c(OC)c1.Cl.Cl (stereo not shown) | – | – | – | – | – | – | – | – | – | – | – |
| 222 to 224 °C | COc1ccc(C)cc1N1CCN(CC(O)COc2ccc(O)cc2)CC1.Cl.Cl (stereo not shown) | – | – | – | – | – | – | – | – | – | – | – |
| 168 to 170 °C (dec.) | COc1ccc(OC)c(N2CCN(CC(O)COc3ccc(O)cc3C)CC2)c1.Cl.Cl (stereo not shown) | – | – | – | – | – | – | – | – | – | – | – |
| 192 to 194 °C (dec.) | COc1ccccc1N1CCN(CC(O)COc2ccc(O)cc2C)CC1.Cl.Cl (stereo not shown) | – | – | – | – | – | – | – | – | – | – | – |
| 214 to 216 °C (dec.) | COc1ccccc1N1CCN(CC(O)COc2ccc(O)c(C)c2)CC1.Cl.Cl (stereo not shown) | – | – | – | – | – | – | – | – | – | – | – |
| – | COc1ccccc1N1CCN(CC(O)COc2cc(C)c(O)c3ccccc23)CC1 (stereo not shown) [Example 2, 1-(3-Methyl-4-hydroxynaphthoxy)-3-[4-(2-methoxyphenyl)-1-piperazinyl]propan-2-ol] | 204.0 ± 17.6 mmHg | 192.2 ± 6.2^*1 mmHg | 191.2 ± 14.6^*1 mmHg | 187.8 ± 11.4^*1 mmHg | 216.8 ± 18.0 | 21.8 ± 2.05^*1 mmHg | 24.4 ± 1.82 mmHg | 25.8 ± 2.39 mmHg | 26.6 ± 2.88 mmHg | 25.2 ± 1.30 | IC50 [3]: 23 µM; Radical scavenging activity (in words) [3]: concentration-dependently exhibited a radical scavenging activity; Radical scavenging rate (%) ([3]; final concentration 1 μM): 7.8%; Radical scavenging rate (%) ([3]; final concentration 10 μM): 24.9%; Radical scavenging rate (%) ([3]; final concentration 30 μM): 61.0%; Radical scavenging rate (%) ([3]; final concentration 100 μM): 99.4%; Radical scavenging rate (%) ([3]; final concentration 1000 μM): 99.8% |
| – | COc1ccccc1N1CCN(CC(O)COc2c(C)cc(O)c3ccccc23)CC1.Cl.Cl (stereo not shown) [Example 4, 1-(2-Methyl-4-hydroxynaphthoxy)-3-[4-(2-methoxyphenyl)-1-piperazinyl]propan-2-ol dihydrochloride] | 201.8 ± 7.7^*3 mmHg | 207.8 ± 13.8^*2 mmHg | 212.2 ± 3.8^*3 mmHg | 212.2 ± 20.8^*1 mmHg | 240.0 ± 8.5 | 17.3 ± 2.06^*3 mmHg | 15.0 ± 3.74^*2 mmHg | 15.8 ± 2.06^*3 mmHg | 20.8 ± 2.22^*2 mmHg | 26.5 ± 1.75 | Intraocular pressure lowering effect (in words) ([2]; 0.5% eye drops): a potent intraocular pressure lowering effect was observed since one hour after instillation; Time of peak intraocular pressure lowering effect after instillation ([2]; 0.5% eye drops): 2 h; IC50 [3]: 42 µM; Radical scavenging activity (in words) [3]: concentration-dependently exhibited a radical scavenging activity; Radical scavenging rate (%) ([3]; final concentration 1 μM): 6.7%; Radical scavenging rate (%) ([3]; final concentration 10 μM): 16.6%; Radical scavenging rate (%) ([3]; final concentration 30 μM): 37.7%; Radical scavenging rate (%) ([3]; final concentration 100 μM): 75.4%; Radical scavenging rate (%) ([3]; final concentration 1000 μM): 91.7% |
| 208 to 210 °C (dec.) | COc1ccccc1N1CCN(CC(O)COc2cc(C)c(O)c(C)c2)CC1.Cl.Cl (stereo not shown) [Example 17, 1-(3,5-Dimethyl-4-hydroxyphenoxy)-3-[4-(2-methoxyphenyl)-1-piperazinyl]propan-2-ol dihydrochloride] | 214.8 ± 9.9^*1 mmHg | 230.8 ± 13.0 mmHg | 225.0 ± 13.0 mmHg | 219.5 ± 10.6 mmHg | 247.3 ± 23.2 | 25.4 ± 2.79^*1 mmHg | 25.4 ± 2.88^*1 mmHg | 27.0 ± 3.08 mmHg | 28.6 ± 4.22 mmHg | 30.0 ± 3.08 | – |
| 170 to 172 °C | COc1ccccc1N1CCN(CC(O)COc2ccc(O)c(C(C)(C)C)c2)CC1.Cl (stereo not shown) [Example 20, 1-(3-tert-Butyl-4-hydroxyphenoxy)-3-[4-(2-methoxyphenyl)-1-piperazinyl]propan-2-ol hydrochloride] | 204.8 ± 16.9^*2 mmHg | 215.0 ± 11.0^*2 mmHg | 217.5 ± 15.2^*1 mmHg | 216.3 ± 18.0^*1 mmHg | 250.3 ± 14.3 | 22.2 ± 2.59^*1 mmHg | 25.2 ± 0.84 mmHg | 25.8 ± 2.59 mmHg | 28.0 ± 1.73 mmHg | 28.0 ± 3.81 | – |
| 228 to 230 °C (dec.) | COc1ccccc1N1CCN(CC(O)COc2ccc(O)c(C)c2C)CC1.Cl (stereo not shown) [Example 22, 1-(2,3-Dimethyl-4-hydroxyphenoxy)-3-[4-(2-methoxyphenyl)-1-piperazinyl]propan-2-ol hydrochloride] | 218.3 ± 11.3^*1 mmHg | 231.0 ± 14.5 mmHg | 236.5 ± 9.1 mmHg | 241.0 ± 9.8 mmHg | 247.0 ± 10.7 | – | – | – | – | – | – |
| 163 to 165 °C | COc1ccccc1N1CCN(CC(O)COc2cc(C)c(O)c(C)c2C)CC1 (stereo not shown) [Example 23, 1-(2,3,5-Trimethyl-4-hydroxyphenoxy)-3-[4-(2-methoxyphenyl)-1-piperazinyl]propan-2-ol] | 193.3 ± 15.4 mmHg | 192.0 ± 10.8 mmHg | 179.3 ± 7.8^*1 mmHg | 192.0 ± 15.1 mmHg | 204.0 ± 14.4 | 20.8 ± 3.30^*1 mmHg | 22.8 ± 3.40 mmHg | 22.5 ± 3.42 mmHg | 23.8 ± 3.30 mmHg | 27.5 ± 3.42 | – |
| 205 to 207 °C | COc1ccc(OC)c(N2CCN(CC(O)COc3ccc(O)cc3)CC2)c1.Cl.Cl (stereo not shown) [Example 25, 1-(4-Hydroxyphenoxy)-3-[4-(2,5-dimethoxyphenyl)-1-piperazinyl]propan-2-ol dihydrochloride] | – | – | – | – | – | 26.8 ± 1.92^*2 mmHg | 25.4 ± 1.82^*2 mmHg | 28.6 ± 6.11 mmHg | 29.6 ± 2.07 mmHg | 31.6 ± 2.41 | – |
